# In paper PMC7315563, “Bioactive fluorenes. Part III: 2,7-dichloro-9H-fluorene-based thiazolidinone and azetidinone analogues as anticancer and antimicrobial against multidrug resistant strains agents” (BMC Chemistry, 2020):
# How the values were obtained:
# [1] = system: Staphylococcus aureus (S. aureus), multidrug resistant clinical isolate; test: agar well diffusion assay; type: cell-based; conditions: Staphylococcus aureus; S. aureus; 500 µg/mL of tested compound; 24 h
# Procedure, shortened: (§1)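 Multidrug-resistant clinical isolates swabbed on Mueller–Hinton agar at about 1–5 × 10^5 CFU/mL; 0.5 cm wells received 50 μL compound at 500 μg/mL in 1% DMSO. Incubation 24 h, 37 °C for bacteria and C. albicans, 25 °C for Aspergillus; inhibition zone diameter measured in mm.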
# S. aureus = test: MIC by broth microdilution method (resazurin end point); type: cell-based; conditions: Staphylococcus aureus; S. aureus; 24 h at 37 °C; read-out: MIC
# Method: (§2) Determination of Minimum inhibitory concentrations (MIC) of flourene derivatives was done using broth microdilution method. The procedure involved preparation of twofold dilutions of the fluorene derivatives ranging from (500–7.8 μg/mL) in sterile Mueller–Hinton broth inside the wells of 96-well microplate (Sarstedt, Germany). The inoculums of test strains prepared from fresh overnight cultures were adjusted to 0.5 McFarland standards, which equals to 1–2 × 10^8 CFU/mL for bacteria, the procedure was done according to CLSI 2012 [42]. […] For this assay the positive control agents were vancomycin (range: 0.7–50 μg/mL), gentamicin (range: 0.15–10 μg/mL) and the negative control was 1% DMSO.
# (§3) For proper determination of the MIC end point resazurin dye has been used. A stock solution of resazurin sodium salt powder (Titan Biotech) was prepared at 0.02% (wt/vol) in distilled water, sterilized by filtration through a […] filter into a sterile light protected container then stored protected from light at 4 °C for up to 1 week, or at − […] for long term use, then 10–15% resazurin solution of the total volume in wells was added to each well and incubation for 1–4 h at 37 °C was done. A change in color from blue to pink indicates the growth of bacteria, and MIC was defined as the lowest concentration of the drug that prevented this change in color.
# [2] = system: MDA-MB-231 human breast cancer cells; test: cell viability assay (MTT); type: cell-based; conditions: 24 h; for viability at 1 µg/mL: read-out: Validity (%) for sample concentrations (µg/mL) 1; for viability at 10 µg/mL: read-out: Validity (%) for sample concentrations (µg/mL) 10; for viability at 31.25 µg/mL: read-out: Validity (%) for sample concentrations (µg/mL) 31.25; for viability at 62.5 µg/mL: read-out: Validity (%) for sample concentrations (µg/mL) 62.5; for viability at 125 µg/mL: read-out: Validity (%) for sample concentrations (µg/mL) 125; for viability at 250 µg/mL: read-out: Validity (%) for sample concentrations (µg/mL) 250; for viability at 500 µg/mL: read-out: Validity (%) for sample concentrations (µg/mL) 500
# Procedure, shortened: (§4)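 Cells were seeded at 5000/well in RPMI-1640 with 10% FBS. The next day they were exposed to fluorene derivatives at 0–500 µg/mL for 24 h. Viability was measured by MTT absorbance at 570 nm.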
# [3] = system: WI-38 human normal fibroblast cells; test: cell viability assay (MTT); type: cell-based; conditions: 24 h; for viability at 31.25 µg/mL: read-out: Validity (%) for sample concentrations (µg/mL) 31.25; for viability at 62.5 µg/mL: 62.50 µg/mL, read-out: Validity (%) for sample concentrations (µg/mL) 62.50; for viability at 125 µg/mL: read-out: Validity (%) for sample concentrations (µg/mL) 125; for viability at 250 µg/mL: read-out: Validity (%) for sample concentrations (µg/mL) 250; for viability at 500 µg/mL: read-out: Validity (%) for sample concentrations (µg/mL) 500
# Procedure, shortened: as §4
# [4] = system: A549 human lung cancer cells; test: cell viability assay (MTT); type: cell-based; conditions: 24 h; for viability at 1 µg/mL: read-out: Validity (%) for sample concentrations (µg/mL) 1; for viability at 10 µg/mL: read-out: Validity (%) for sample concentrations (µg/mL) 10; for viability at 31.25 µg/mL: read-out: Validity (%) for sample concentrations (µg/mL) 31.25; for viability at 62.5 µg/mL: 62.50 µg/mL, read-out: Validity (%) for sample concentrations (µg/mL) 62.50; for viability at 125 µg/mL: read-out: Validity (%) for sample concentrations (µg/mL) 125; for viability at 250 µg/mL: read-out: Validity (%) for sample concentrations (µg/mL) 250; for viability at 500 µg/mL: read-out: Validity (%) for sample concentrations (µg/mL) 500; for viability at 1000 µg/mL: read-out: Validity (%) for sample concentrations (µg/mL) 1000
# [5] = system: Escherichia coli (E. coli), multidrug resistant clinical isolate; test: agar well diffusion assay; type: cell-based; conditions: 24 h, 500 µg/mL of tested compound
# Procedure, shortened: as §1
# [6] = system: Pseudomonas aeruginosa (P. aeruginosa), multidrug resistant clinical isolate; test: agar well diffusion assay; type: cell-based; conditions: 24 h, 500 µg/mL of tested compound
# Procedure, shortened: as §1
# E. coli = test: MIC by broth microdilution method (resazurin end point); type: cell-based; conditions: Escherichia coli, 24 h at 37 °C
# Method: as §2, §3
# P. aeruginosa = test: as above; type: cell-based; conditions: Pseudomonas aeruginosa, 24 h at 37 °C
# Method: as §2, §3
# [7] = system: Acinetobacter baumannii (A. baumannii), multidrug resistant clinical isolate; test: agar well diffusion assay; type: cell-based; conditions: 500 µg/mL of tested compound, 24 h
# Procedure, shortened: as §1
# [8] = system: methicillin-resistant Staphylococcus aureus (MRSA); test: agar well diffusion assay; type: cell-based; conditions: Staphylococcus aureus, 500 µg/mL of tested compound, 24 h
# Procedure, shortened: as §1
# [9] = system: Klebsiella pneumoniae (K. pneumoniae), multidrug resistant clinical isolate; test: agar well diffusion assay; type: cell-based; conditions: 24 h, 500 µg/mL of tested compound
# Procedure, shortened: as §1
SMILES,zone of inhibition at 500 µg/mL [1] [mm],viability at 1 µg/mL [2] [%],viability at 10 µg/mL [2] [%],viability at 31.25 µg/mL [2] [%],viability at 62.5 µg/mL [2] [%],viability at 125 µg/mL [2] [%],viability at 250 µg/mL [2] [%],viability at 500 µg/mL [2] [%],IC50 [2] [µg/mL],viability at 31.25 µg/mL [3] [%],viability at 62.5 µg/mL [3] [%],viability at 125 µg/mL [3] [%],viability at 250 µg/mL [3] [%],viability at 500 µg/mL [3] [%],IC50 [3] [µg/mL],melting point [°C],viability at 1 µg/mL [4] [%],viability at 10 µg/mL [4] [%],viability at 31.25 µg/mL [4] [%],viability at 62.5 µg/mL [4] [%],other results
"COc1cc(C2SCC(=O)N2c2nc(-c3cc(Cl)cc4c3-c3ccc(Cl)cc3C4)cs2)ccc1O (stereo not shown) [5h, 3-(4-(2,7-Dichloro-9H-fluoren-4-yl)thiazol-2-yl)-2-(4-hydroxy-3-methoxyphenyl)thiazolidin-4-one]",11,90.9,82.8,79.3,76.8,71.7,61.7,56.7,> 500,95,81.7,78.7,72.8,66.2,> 500,85 to 87,92.9,91.4,90.3,88.7,MIC (S. aureus): 62.5 µg/mL; viability at 125 µg/mL [4]: 85.7%; viability at 250 µg/mL [4]: 82.7%; viability at 500 µg/mL [4]: 77.2%; viability at 1000 µg/mL [4]: 68%; IC50 [4]: 1610 µg/mL
"O=C1CSC(c2ccco2)N1c1nc(-c2cc(Cl)cc3c2-c2ccc(Cl)cc2C3)cs1 (stereo not shown) [5j, 3-(4-(2,7-Dichloro-9H-fluoren-4-yl)thiazol-2-yl)-2-(furan-2-yl)thiazolidin-4-one]",6,94.4,74.8,67,61.4,60.2,57.2,49.3,435,84.2,66.1,61.5,39.1,38.5,196,139 to 141,92.9,84.6,83.6,82.5,zone of inhibition at 500 µg/mL [5]: 10 mm; zone of inhibition at 500 µg/mL [6]: 8 mm; MIC (E. coli): 62.5 µg/mL; MIC (P. aeruginosa): 62.5 µg/mL; viability at 125 µg/mL [4]: 81.6%; viability at 250 µg/mL [4]: 77.5%; viability at 500 µg/mL [4]: 71.4%; viability at 1000 µg/mL [4]: 52.5%; IC50 [4]: 1050 µg/mL
"CN(C)c1ccc(C2C(Cl)C(=O)N2c2nc(-c3cc(Cl)cc4c3-c3ccc(Cl)cc3C4)cs2)cc1 (stereo not shown) [6e, 3-Chloro-1-(4-(2,7-dichloro-9H-fluoren-4-yl)thiazol-2-yl)-4-(4-(dimethylamino)phenyl)-azetidin-2-one]",12,98.2,90.2,89.9,85.2,69.2,41.9,39.4,215,68.8,52.5,45.6,38.6,26.8,65.4,110 to 111,95.4,90.3,87.5,81.7,MIC (S. aureus): 62.5 µg/mL; viability at 125 µg/mL [4]: 71.1%; viability at 250 µg/mL [4]: 50.7%; viability at 500 µg/mL [4]: 33.2%; viability at 1000 µg/mL [4]: 28.8%; IC50 [4]: 276 µg/mL
"O=C1C(Cl)C(c2ccc([N+](=O)[O-])cc2)N1c1nc(-c2cc(Cl)cc3c2-c2ccc(Cl)cc2C3)cs1 (stereo not shown) [6f, 3-Chloro-1-(4-(2,7-dichloro-9H-fluoren-4-yl)thiazol-2-yl)-4-(4-nitrophenyl)azetidin-2-one]",10,91.8,89.6,83,72.4,59.7,37.2,28.9,188,49,44.8,35.6,32.3,30.4,29,114 to 116,91.3,89.8,86.2,83.2,zone of inhibition at 500 µg/mL [7]: 5 mm; viability at 125 µg/mL [4]: 67.3%; viability at 250 µg/mL [4]: 46.6%; viability at 500 µg/mL [4]: 38.6%; viability at 1000 µg/mL [4]: 25.4%; IC50 [4]: 230 µg/mL
"O=C1C(Cl)C(c2ccncc2)N1c1nc(-c2cc(Cl)cc3c2-c2ccc(Cl)cc2C3)cs1 (stereo not shown) [6m, 3-Chloro-1-(4-(2,7-dichloro-9H-fluoren-4-yl)thiazol-2-yl)-4-(pyridin-4-yl)azetidin-2-one]",4,93.2,89.9,77.6,73.2,67.1,63.4,59.5,> 500,78.5,72.8,68.5,63,55.7,> 500,249 to 250,91.5,81.8,67.6,65.9,zone of inhibition at 500 µg/mL [5]: 27 mm; zone of inhibition at 500 µg/mL [8]: 6 mm; zone of inhibition at 500 µg/mL [9]: 3 mm; MIC (E. coli): 15.6 µg/mL; viability at 125 µg/mL [4]: 62.7%; viability at 250 µg/mL [4]: 58.7%; viability at 500 µg/mL [4]: 54.1%; viability at 1000 µg/mL [4]: 49.8%; IC50 [4]: 830 µg/mL
